Data on ten compounds can be found in ChEMBL document CHEMBL1201862, “PubChem BioAssay data set” (2004).

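Results reflect a 48-hour exposure of cells in 96-well plates to compound at five concentrations. At the GI50, growth is halved.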 Calls of active or inactive are those of the source. Rule as the data show it: active = GI50 up to about 1.1 µM and inactive = higher. Some results are limits rather than exact numbers.

Common to all, as to assay: NCI tumour cell line growth inhibition, 48 h
In experiment [1] the test system is BT-549.
Experiment [2] concerns COLO 205.
In experiment [3] the test system is DU-145.
Experiment [4] relates to HCT-15.
Experiment [5] concerns K562.
Experiment [6] deals with MDA-MB-435.
Experiment [7] relates to Malme-3M.
In experiment [8] the test system is NCI-H522.
Experiment [9] has as its system NCI/ADR-RES.
The subject of experiment [10] is OVCAR-3.
Experiment [11] has as its system OVCAR-4.
Experiment [12] deals with PC-3.
Experiment [13] has as its system SF-539.
Experiment [14] has as its system SK-MEL-5.
Experiment [15] deals with SK-OV-3.
The test system of experiment [16] is SNB-19.
The subject of experiment [17] is SNB-75.
For experiment [18], the system named is TK-10.
The subject of experiment [19] is UACC-257.
The test system of experiment [20] is UACC-62.

As for `C(=NCCN1CCOCC1)=NC1CCCCC1`, the GI50 was > 100 µM (inactive) in [1]; > 100 µM (inactive) in experiment [2]; > 100 µM (inactive) in experiment [3]; > 100 µM in experiment [4]; > 100 µM (inactive) in experiment [5]; > 100 µM (inactive) in experiment [6]. Besides, the GI50 in [7], in [8], in [9], in experiment [10], in experiment [11] and in [12] was > 100 µM (inactive) each time. For the same compound, the GI50 in [13], in experiment [14], in experiment [15], in experiment [16], in [17] and in experiment [18] was > 100 µM (inactive) throughout. Also, the GI50 in experiment [19] and in experiment [20] was > 100 µM (inactive) each time.
Consider `Cc1n(CC(C)C)c2c([n+]1C)C(=O)c1ccccc1C2=O`, for which the GI50 in experiment [1] was 0.227 µM (active); in [2], < 0.0152 µM (active); in experiment [3], 0.203 µM (active); in experiment [4], 0.478 µM; in experiment [5] it was 0.431 µM (active); in experiment [6] it was 0.143 µM (active). Also, the GI50 was 0.0957 µM (active) in experiment [7]; 0.0176 µM (active) in [8]; 2.43 µM (inactive) in experiment [9]; < 0.01 µM (active) in experiment [10]; 0.0594 µM (active) in experiment [11]; 0.0348 µM (active) in [12]. For the same compound, the GI50 in [13] was 0.0479 µM (active); in experiment [14], 0.0473 µM (active); in experiment [15], 0.35 µM (active); in experiment [16], 0.0716 µM (active); in experiment [17], 0.416 µM (active); in experiment [18] it was 0.411 µM (active). Also, the GI50 was 0.0513 µM (active) in experiment [19] and 0.198 µM (active) in [20].
As for `CCOC(=O)CCC(NC(=O)c1ccc(NCc2ccc3nc(OC)c(OC)nc3c2)c2ccccc12)C(=O)OCC` (stereo not given), the GI50 in experiment [1] was > 100 µM (inactive); in experiment [2] it was > 100 µM (inactive); in experiment [3], > 100 µM (inactive); in [4] it was > 100 µM; in [5], > 100 µM (inactive); in experiment [6], > 100 µM (inactive). Further, the GI50 in experiment [7] was > 100 µM (inactive); in experiment [8] it was > 100 µM (inactive); in [9], > 100 µM (inactive); in experiment [10], 94.2 µM (inactive); in experiment [11], 43.1 µM (inactive); in [12] it was 61.4 µM (inactive). Moreover, the GI50 was 20.8 µM (inactive) in experiment [13]; 58.1 µM (inactive) in experiment [14]; 31 µM (inactive) in experiment [15]; 76.2 µM (inactive) in [16]; 38.8 µM (inactive) in experiment [17]; 66.2 µM (inactive) in [18]. Also, the GI50 in experiment [19] is > 100 µM (inactive); in experiment [20], 73.8 µM (inactive).
With `CC(C)(C)n1c(=O)n2c(-c3ccccc3)c(-c3ccccc3)n2c1=O`, the GI50 in experiment [1] was 53.7 µM (inactive); in experiment [2], > 100 µM (inactive); in [3], > 100 µM (inactive); in [4], > 100 µM; in experiment [5], 1.24 µM (inactive); in experiment [6] it was > 100 µM (inactive). Also, the GI50 is > 100 µM (inactive) in [7]; 17.5 µM (inactive) in experiment [8]; > 100 µM (inactive) in experiment [9]; > 100 µM (inactive) in experiment [10]; 72.6 µM (inactive) in experiment [11]; 44.7 µM (inactive) in [12]. Besides, the GI50 in experiment [13] is 36.8 µM (inactive); in [14], 71.8 µM (inactive); in experiment [15] it was > 100 µM (inactive); in experiment [16] it was > 100 µM (inactive); in [17], > 100 µM (inactive); in [18] it was > 100 µM (inactive). In addition, the GI50 in [19] and in experiment [20] was > 100 µM (inactive) in each case.
In the case of `O=C(c1ccc(F)cc1)c1cccc(C(=O)c2ccc(F)cc2)n1`, the GI50 was 12.2 µM (inactive) in experiment [1]; > 100 µM (inactive) in [2]; > 100 µM (inactive) in [3]; > 100 µM in experiment [4]; > 100 µM (inactive) in experiment [5]; > 100 µM (inactive) in [6]. Further, the GI50 is > 77.6 µM (inactive) in experiment [7]; 20.3 µM (inactive) in experiment [8]; 90.8 µM (inactive) in [9]; > 100 µM (inactive) in [10]; 71.6 µM (inactive) in experiment [11]; > 100 µM (inactive) in experiment [12]. Further, the GI50 in experiment [13] is 30.8 µM (inactive); in experiment [14] it was 51.8 µM (inactive); in experiment [15], 1.53 µM (inactive); in [16], 25.2 µM (inactive); in [17] it was 12.6 µM (inactive); in experiment [18] it was 39.7 µM (inactive). In addition, the GI50 in experiment [19] was 47.4 µM (inactive); in experiment [20] it was 44.2 µM (inactive).
As to `O=C1C(=Cc2cccc(Cl)c2)N=C(c2ccccc2)N1n1c(-c2ccccc2)nc2ccccc2c1=O`, the GI50 in experiment [1] is 23.7 µM (inactive); in [2] it was 40 µM (inactive); in experiment [3] it was 52.2 µM (inactive); in experiment [4] it was 49.3 µM; in experiment [5] it was 30.3 µM (inactive); in experiment [6] it was 36.8 µM (inactive). Further, the GI50 in experiment [7] was 50.8 µM (inactive); in experiment [8] it was 16.4 µM (inactive); in experiment [9], 30.9 µM (inactive); in experiment [10] it was 28 µM (inactive); in experiment [11] it was 42.3 µM (inactive); in experiment [12], 28.8 µM (inactive). The GI50 in experiment [13] is 27.9 µM (inactive); in experiment [14], 32.4 µM (inactive); in experiment [15], 47.2 µM (inactive); in [16], 38.1 µM (inactive); in experiment [17], 29.9 µM (inactive); in experiment [18], 95.5 µM (inactive). Moreover, the GI50 was 32.1 µM (inactive) in [19] and 23.9 µM (inactive) in experiment [20].
For `COc1cc2c(cc1O)C(Cc1ccc(OCc3ccccc3)c(OCc3ccccc3)c1)N(C(=O)NCCc1ccccc1)CC2` (stereo not given), the GI50 in [1] is > 100 µM (inactive); in experiment [2], > 100 µM (inactive); in [3] it was > 100 µM (inactive); in experiment [4], > 100 µM; in [5], 74.3 µM (inactive); in [6], > 100 µM (inactive). In addition, the GI50 in [7] is > 100 µM (inactive); in [8] it was 2.88 µM (inactive); in experiment [9] it was > 100 µM (inactive); in experiment [10], > 100 µM (inactive); in experiment [11], 78.9 µM (inactive); in [12], 54.7 µM (inactive). Further, the GI50 in experiment [13] was > 100 µM (inactive); in [14], 33 µM (inactive); in [15], > 100 µM (inactive); in experiment [16], > 100 µM (inactive); in experiment [17], > 100 µM (inactive); in experiment [18] it was > 100 µM (inactive). Also, the GI50 in experiment [19] and in experiment [20] was > 100 µM (inactive) each time.
As for `CCn1c(SCC(=O)N/N=C2\SCC(=O)N2c2ccc(C)cc2)nc2ccccc2c1=O`, the GI50 is > 10 µM (inactive) in [1]; 50.9 µM (inactive) in experiment [2]; 28.2 µM (inactive) in [3]; 32.1 µM in experiment [4]; 29.2 µM (inactive) in experiment [5]; 21.2 µM (inactive) in experiment [6]. Besides, the GI50 in [7] was 21.9 µM (inactive); in experiment [8], 22.4 µM (inactive); in experiment [9], 19.8 µM (inactive); in experiment [10], 21.4 µM (inactive); in [11], 18.2 µM (inactive); in experiment [12], 21.3 µM (inactive). In addition, the GI50 was 17.6 µM (inactive) in [13]; 22.9 µM (inactive) in experiment [14]; 19.7 µM (inactive) in experiment [15]; 20.8 µM (inactive) in [16]; 17.1 µM (inactive) in experiment [17]; 15 µM (inactive) in experiment [18]. Further, the GI50 in experiment [19] was 15.7 µM (inactive); in [20], 15.3 µM (inactive).
For the compound `COC1CC(OC2C(C)OC(OC3C(C)OC(OC4C(O)CC(O[C@H]5CC[C@@]6(C)C(=CC[C@]7(O)[C@@H]6C[C@@H](OC(C)=O)[C@@]6(C)[C@]7(O)CC[C@@]6(O)C(C)=O)C5)OC4C)CC3OC)CC2OC)OC(C)C1O` (stereo not given in full), the GI50 was > 12.5 µM (inactive) in experiment [1]; > 12.5 µM (inactive) in [2]; > 12.5 µM (inactive) in [3]; > 12.5 µM in experiment [4]; > 12.5 µM (inactive) in experiment [5]; > 12.5 µM (inactive) in experiment [6]. For the same compound, the GI50 in [7] is 8.26 µM (inactive); in [8], > 12.5 µM (inactive); in [9] it was > 12.5 µM (inactive); in [10], > 12.5 µM (inactive); in [11], > 12.5 µM (inactive); in [12], > 12.5 µM (inactive). Besides, the GI50 in [13], in [14], in experiment [15], in experiment [16], in experiment [17] and in [18] was > 12.5 µM (inactive) each time. In addition, the GI50 in experiment [19] and in experiment [20] was > 12.5 µM (inactive) each time.
Regarding `COc1ccc2nc3c(c(N)c2c1)C1CCC3C1(C)C` (stereo not given), the GI50 in [1] was > 100 µM (inactive); in experiment [2], 17.1 µM (inactive); in experiment [3], > 100 µM (inactive); in [4], 51.1 µM; in [5], 41.7 µM (inactive); in experiment [6] it was 33 µM (inactive). In addition, the GI50 in experiment [7] is 24.3 µM (inactive); in experiment [8] it was 34.7 µM (inactive); in [9], > 100 µM (inactive); in experiment [10], 31.9 µM (inactive); in experiment [11] it was 47.6 µM (inactive); in experiment [12], 24.3 µM (inactive). In addition, the GI50 in experiment [13] was 38.2 µM (inactive); in experiment [14] it was 12.5 µM (inactive); in experiment [15], 28.1 µM (inactive); in [16] it was > 100 µM (inactive); in experiment [17], 29.6 µM (inactive); in experiment [18], 32.7 µM (inactive). Moreover, the GI50 in experiment [19] was 18.9 µM (inactive); in [20], 15.3 µM (inactive).
